The source of these data is US20220133702A1, “CYSTIC FIBROSIS TRANSMEMBRANE CONDUCTANCE REGULATOR MODULATORS FOR TREATING AUTOSOMAL DOMINANT POLYCYSTIC KIDNEY DISEASE” (The Johns Hopkins University, priority 2020, published 2022).

The subject of one experiment is cAMP in PN cells. Briefly: Cyclic AMP enzyme immunoassay in cells. In kind it is cell-based, mouse. As to conditions: for increase of cAMP activity: PN cells treated with forskolin or IBMX. The method, then: FIG. 4A, FIG. 4B, FIG. 4C, FIG. 4D, and FIG. 4E show (FIG. 4A-FIG. 4B) cAMP levels are reduced by VX-809. (FIG. 4A) cAMP levels in mouse tissue were reduced by VX-809. The kidney samples (n=6) analyzed were taken from those depicted in FIG. 1. (FIG. 4B) Confluent PN and PH cells were treated with VX-809 (10 μM) or DMSO for 16 hand then treated with forskolin (100 μM) for 30 min before the cells were harvested for the assay. Columns represent means±SEM. Statistical analysis was performed using a two-tailed Student's t-test. Each set of data is from three individual wells; Note that resting cAMP is greater in PN vs PH cells as previously shown (25). Also note that forskolin caused a large increase in cAMP. A smaller increase occurred with IBMX. However, the increase induced by forskolin alone was similar to that by IBMX plus forskolin. […] (FIG. 4C, FIG. 4D, and FIG. 4E) Adenylyl cyclase expression. (FIG. 4C) Western blot showing the expression of adenylyl cyclase (AC) 6 and AC3 in treated and control PN cells. (FIG. 4D-FIG. 4E) Columns represent means±SEM of the AC3 and AC6 expression. The data were analyzed by non-parametric t-test. The experiment was repeated four times. For all graphs, *P<0.05, **P<0.01, and ***P<0.001;
It has been shown previously in both animal and cell culture models of ADPKD that cells lacking functional PC1 have elevated cAMP levels when compared to normal. To assess the effect of CFTR correctors, cAMP activity was measured in PC1 conditional knockout mouse kidneys and in PN cells that were either left untreated or treated with VX-809. […] Cells were treated with forskolin, which increased cAMP levels drastically (FIG. 4B). It should be noted that VX-809 reduced the forskolin-induced increase in cAMP, indicating a direct action of VX-809 on adenylyl cyclase activity. […] Treating PN cells with forskolin or IBMX (FIG. 4B) increased the cAMP activity by approximately 10-fold.
Cyclic AMP assay. Confluent cells were treated with VX-809 (10 μM) or DMSO for 16 h before being harvested for assay. Cyclic AMP levels were measured with a direct cAMP Enzyme Immunoassay Kit (Sigma, #CA200) according to the manufacturer's protocol. The results are expressed as pmole/ml. Statistical analysis was performed using a two-tailed Student's t-test.

Experiment [1] relates to Hsp27, Hsp70, and Hsp90 in PN cells. In words: Disappearance of Hsps after translation block with cycloheximide. The class given is cell-based, mouse. The following applies: cycloheximide 25 μM alone, over 8 h. As for the experimental part:
FIG. 9A, FIG. 9B, FIG. 9C, FIG. 9D, FIG. 9E, FIG. 9F, FIG. 9G, and FIG. 9H show Hsp27, HSp70, and Hsp90 expression in PN cells treated with VX-809 and/or cycloheximide. (A) Pkd1 null (PN) cells were treated with VX-809 (10 μM) and/or with cycloheximide (25 μM) for indicated time points before being harvested for the assay. (FIG. 9A) Western blot showing expression of Hsp27, Hsp70, and Hsp90 in VX-809-(16 h), cycloheximide-treated, or control PN cells. ((FIG. 9B. (FIG. 9C, and (FIG. 9D) Columns represent averages±standard errors of Hsp27, Hsp70, and Hsp90 expression in cells treated with VX-809 and/or cycloheximide. ((FIG. 9E) Western blot showing expression of Hsp27, Hsp70, and Hsp90 in PN cells treated with VX-809+cycloheximide or control PN cells. ((FIG. 9F, FIG. 9G, and FIG. 9H) Columns represent averages±standard errors of Hsp27, Hsp70, and Hsp90 expression in cells treated only with cycloheximide or in control PN cells. Data were analyzed by non-parametric t-test. The experiments were repeated 3-5 times. *P<0.05, **P<0.01;
To gain more insight into the mechanism whereby VX-809 alters Hsp protein levels, translation was inhibited by using cycloheximide and the disappearance of the three Hsps was monitored. […] Hsp90 was reduced by approximately 25%, and Hsp27 was unchanged.

On to `CC(C)Cn1c(=O)n(C)c(=O)c2[nH]cnc21` [IBMX, 3-isobutyl-1-methylxanthine], for which, in the experiment with cAMP in PN cells, the “increase of cAMP activity” value is on record as “approximately 10 fold”.
As for `C[C@@H]1C[C@@H]([C@H](O)CC2CC(=O)NC(=O)C2)C(=O)[C@@H](C)C1` [cycloheximide], the “steady-state levels of each of the Hsps” value in experiment [1] was “unchanged”.
As for `C=C[C@@]1(C)CC(=O)[C@]2(O)[C@@]3(C)[C@@H](O)CCC(C)(C)[C@@H]3[C@H](O)[C@H](OC(C)=O)[C@@]2(C)O1` [forskolin], the “increase of cAMP activity” value in the experiment on cAMP in PN cells is “approximately 10 fold”. Moreover, the “elevation of cAMP activity” value in the experiment with cAMP in PN cells (forskolin, as stated at the end of Example 4) was around 500 fold.
